Reference: paper PMC8983860, “A Novel Small Molecular Inhibitor of DNMT1 Enhances the Antitumor Effect of Radiofrequency Ablation in Lung Squamous Cell Carcinoma Cells” (Frontiers in Pharmacology, 2022)

How the values were obtained:
DNMT-1 = DNMT-1 (Homo sapiens, UniProt P26358); assay: In vitro activity test on DNMT-1; type: biochemical; details: for In vitro activity (IC50) compared to ZINC15602870: comparison in words; for IC50: in vitro activity on DNMT1, Table 1
Description: AutoDock Vina was used to screen the 72,000 compounds using the ligands in the original protein as the docking template. […] Continuous fine screening was performed with AutoDock Vina to obtain the top 50 compounds which were then analyzed by cluster analysis. Next, the representative compounds with large structural differences were empirically selected. Finally, a total of 12 representative compounds were selected (see supporting document), purchased from Medrige or synthesized by ourselves.
The side chains of compounds 03 and 07 were then introduced onto position R2 of the new parent ring (Table 1). In vitro activity tests were then performed as previously described ([Datta et al., 2009]).

H226 LSCC cells = assay: Subcutaneous H226 LSCC tumors in nude mice, oral iDNMT with or without RFA; type: in vivo
Description: The antitumor efficacy of iDNMT, RFA, and iDNMT1 + RFA on LSCC tissues was examined in nude mice. Nude mice aged 5 weeks were obtained from the Si-Bei-Fu Corporation (Beijing, China), and they were fed under specific pathogen-free conditions. The H226 cells (approximately 5 × 10^6 cells/animal), which were transfected with plasmids, were subcutaneously injected into nude mice to generate tumor tissues ([Feng et al., 2019]; [Sun et al., 2019]). The dimensions of these tumors were measured using a Vernier caliper every 7 days. Tumor volumes were calculated according to the following formula: tumoral width × tumoral width × tumoral length/2 ([Feng et al., 2019]; [Sun et al., 2019]). For RFA treatment or RFA + iDNMT treatment, RFA of the LSCC subcutaneous tumors was performed using a thyroid-ablation needle (Cat No.: UniBlate 700-103587 17G, RITA Company, Crystal Lake, IL, United States) when the tumoral volume reached ∼500 mm^3. The conditions for RFA were as follows: 2 min RFA-duration with a series of different temperatures, 65, 60, or 55°C. In addition, iDNMT was administered orally at 10, 5, 2, or 1 mg/kg ([Xie et al., 2018a]; [Xie et al., 2018b]; [Zhou et al., 2021]). The formulation of iDNMT and the oral administration were performed as previously described ([Zou et al., 2021a]; [Zou et al., 2021b]; [Wang et al., 2021c]; [Jie et al., 2021]). Subcutaneous tumors were separated from the animals, and the weights of these tumors were measured using a precision-balance.

Notch pathway = assay: Expression of Notch pathway-related factors (qPCR) and methylation of the miR-27-3p promoter (BSP-NGS) after iDNMT treatment; type: cell-based, human
Description: The genomic DNA samples from the clinical specimens, tumor tissues, and cultured cells were extracted and isolated using the DNeasy Blood & Tissue Kit (Cat No. 69504; QIAGEN, Hilden, Germany) and treated with the EpiTect Bisulfite Kit (Cat No. 59104; QIAGEN) according to the manufacturer’s instructions. Next, the polymerase chain reactions (PCRs) were performed using DNA samples and a high-fidelity polymerase, Platinum II Hot-Start PCR Master Mix (Cat No. 14000012; Thermo Fisher Scientific), to amplify the selected promoter region (chr19: 13836440-13838517, negative chain [-], the selected promoter region of has-pre-miR-27) of miR-27 with CpG islands (chr19: 13,835,599-13,835,325, negative chain [-]). […] Following PCR experiments, the products were directly sequenced by using Ion Torrent PGM, and the methylation rates were calculated as previously described ([Ma et al., 2020]; [Wang et al., 2021b]; [He et al., 2021]).
For quantitative PCR (qPCR) analysis, the total RNA was extracted from the clinical specimens, LSCC cells, or subcutaneous tumor tissues as described by Ma et al. (2020) before reverse transcription to generate cDNA. The expression of DNMT1, Notch-related factors, and has-pre-miR-27 was examined by real-time quantitative fluorescence PCR (RT-PCR/qPCR) ([Ma et al., 2016]; [Yang et al., 2020]; [Du et al., 2021]) with β-actin as the loading control. […]

H226 cells = assay: Subcellular fractionation and Western blotting of H226 cells; type: cell-based, human; details: immunoblotting
Description: The H226 cells were cultured in Dulbecco’s modified Eagle’s medium (DMEM) with 10% (v/v) fetal bovine serum (FBS). The cells were transfected with plasmids or treated with the appropriate concentration of iDNMT [low dose (0.1 μmol/L), medium dose (1 μmol/L), and high dose (10 μmol/L)]. The H226 cells were then harvested for subcellular fractionation assays as previously described. The H226 cells were split into the nuclear subfraction or the cytoplasmic subfraction ([Lu et al., 2013]; [Yang et al., 2013]; [Feng et al., 2018b]). NICD, PSEN-1, and DNMT1 expression levels were examined in the subfractions by immunoblotting using antibodies from Santa Cruz (United States) or Abcam (United Kingdom). We chose β-actin and lamin A as the cytoplasmic and nuclear loading controls or indicators, respectively ([Lu et al., 2013]; [Yang et al., 2013]; [Feng et al., 2018b]).
To further confirm the specificity of iDNMT on the Notch pathway, we analyzed the cytoplasm–nuclear subfraction using immunoblotting. […] The methylation rates of the miR-27-3p′s promoter region and expression level of DNMT-1 or miR-27-3p in cell samples of Figure 5B are shown in Supplementary Figure S1. Therefore, iDNMT represses PSEN-1 expression to inhibit cleavage of Notch, thus inhibiting NICD accumulation in H226 cells.

Chain of DNMT-1 (P26358 whole entry): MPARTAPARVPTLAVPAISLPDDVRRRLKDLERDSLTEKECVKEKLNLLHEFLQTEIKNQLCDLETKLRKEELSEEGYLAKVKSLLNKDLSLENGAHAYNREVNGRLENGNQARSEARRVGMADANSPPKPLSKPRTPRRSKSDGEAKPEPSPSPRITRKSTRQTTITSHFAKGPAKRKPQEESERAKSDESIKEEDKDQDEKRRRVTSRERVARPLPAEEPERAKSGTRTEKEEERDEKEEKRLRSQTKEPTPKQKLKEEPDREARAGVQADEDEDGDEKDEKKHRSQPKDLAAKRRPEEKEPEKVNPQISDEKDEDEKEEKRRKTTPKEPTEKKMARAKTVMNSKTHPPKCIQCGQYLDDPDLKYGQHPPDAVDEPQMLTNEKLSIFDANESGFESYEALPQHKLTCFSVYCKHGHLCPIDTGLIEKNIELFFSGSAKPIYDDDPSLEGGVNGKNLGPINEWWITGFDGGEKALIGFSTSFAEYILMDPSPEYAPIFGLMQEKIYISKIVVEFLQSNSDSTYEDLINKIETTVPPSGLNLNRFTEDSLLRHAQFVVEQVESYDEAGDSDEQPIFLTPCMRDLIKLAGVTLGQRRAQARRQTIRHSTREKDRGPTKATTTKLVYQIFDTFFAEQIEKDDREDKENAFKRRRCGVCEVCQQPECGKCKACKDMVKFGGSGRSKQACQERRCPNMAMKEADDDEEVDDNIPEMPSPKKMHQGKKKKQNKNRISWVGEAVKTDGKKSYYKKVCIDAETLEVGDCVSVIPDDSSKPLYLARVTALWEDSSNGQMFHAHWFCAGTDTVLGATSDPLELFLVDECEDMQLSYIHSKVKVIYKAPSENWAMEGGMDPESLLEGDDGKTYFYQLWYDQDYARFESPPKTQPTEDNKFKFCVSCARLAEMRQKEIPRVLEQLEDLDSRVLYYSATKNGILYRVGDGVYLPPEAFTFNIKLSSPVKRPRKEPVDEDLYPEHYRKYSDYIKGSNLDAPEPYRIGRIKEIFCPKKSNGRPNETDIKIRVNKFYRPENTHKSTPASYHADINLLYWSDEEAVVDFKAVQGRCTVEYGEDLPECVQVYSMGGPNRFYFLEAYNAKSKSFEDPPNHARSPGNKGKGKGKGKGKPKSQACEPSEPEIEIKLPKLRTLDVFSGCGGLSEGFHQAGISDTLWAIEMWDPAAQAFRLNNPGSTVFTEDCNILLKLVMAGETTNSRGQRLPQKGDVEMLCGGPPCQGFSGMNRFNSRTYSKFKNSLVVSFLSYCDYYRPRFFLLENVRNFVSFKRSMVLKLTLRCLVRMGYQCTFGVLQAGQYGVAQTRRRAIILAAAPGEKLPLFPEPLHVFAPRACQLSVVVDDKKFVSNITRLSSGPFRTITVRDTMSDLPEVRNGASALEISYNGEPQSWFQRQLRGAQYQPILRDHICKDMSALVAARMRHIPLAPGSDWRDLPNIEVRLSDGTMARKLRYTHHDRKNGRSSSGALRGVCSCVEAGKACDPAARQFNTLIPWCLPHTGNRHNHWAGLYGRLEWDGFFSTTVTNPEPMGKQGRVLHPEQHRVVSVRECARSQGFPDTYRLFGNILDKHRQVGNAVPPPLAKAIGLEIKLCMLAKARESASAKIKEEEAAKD

With `COc1cc(C(=O)Nc2ccc(S(=O)(=O)NC(=O)c3ccccc3)cc2)ccc1C` [Compound 04] the “In vitro activity (IC50) compared to ZINC15602870” value (DNMT-1) was “improved IC50 values” and the IC50 (DNMT-1) was 13 µM.

For `COc1cc(C(=O)Nc2ccc(C(=O)N3CCN(C(C)=O)CC3)cc2)ccc1C` [Compound 03], the “In vitro activity (IC50) compared to ZINC15602870” value (DNMT-1) was “improved IC50 values” and the IC50 (DNMT-1) was 7 µM.

`CCC(Sc1n[nH]c(NC(=O)c2ccc(C)c(OC)c2)n1)C(=O)OC` (stereo not shown) [Compound 07] was tested, and the IC50 (DNMT-1) was 9 µM.

In the case of `COc1cc(C(=O)Nc2ccc(C(C)=O)cc2)ccc1C` [Compound 01, N-(4-acetylphenyl)-3-methoxy-4-methylbenzamide], the IC50 (DNMT-1) is reported as 20 µM.

Work on `COC(=O)CCSc1n[nH]c(NC(=O)c2ccc(C)c(OC)c2)n1` [Compound 05] yielded an IC50 (DNMT-1) of 18 µM.

`COc1cc(C(=O)Nc2nc(SCC3OCCO3)n[nH]2)ccc1C` [Compound 08] gave an IC50 (DNMT-1) of 30 µM.

`COCCCSc1n[nH]c(NC(=O)c2ccc(C)c(OC)c2)n1` [Compound 06] gave an IC50 (DNMT-1) of 38 µM.

In the case of `CCC(Sc1n[nH]c(NC(=O)c2ccc(OC)c(OC)c2)n1)C(=O)OC` (stereo not shown) [Compound 11], the IC50 (DNMT-1) is reported as 6 µM.

`CCOC(=O)CCCSc1n[nH]c(NC(=O)c2ccc(C)c(OC)c2)n1` [Compound 09] showed an IC50 (DNMT-1) of 22 µM.

For `COc1ccc(C(=O)Nc2ccc(C(=O)N3CCN(C(C)=O)CC3)cc2)cc1OC` [Compound 10], the LSCC tumor volumes (H226 LSCC cells; 2 mg/kg iDNMT oral combined with 2 min RFA at 55°C) was “significantly induced shrinkage of LSCC tumor volumes”, the “EMT process of LSCC cells in subcutaneous tissues” value (H226 LSCC cells; iDNMT with RFA 55°C for 2 min) was “inhibited the EMT process” and the “miR-27-3p expression in tumor tissues” value (H226 LSCC cells; oral, 2 mg/kg, leads to inhibition of the Notch pathway) was “significantly upregulated miR-27-3p expression”. For the same compound, the “subcutaneous growth of H226 cells (antitumor activity)” value (H226 LSCC cells; oral, iDNMT alone, 2 mg/kg) was “weak antitumor activity”, the “subcutaneous growth of H226 cells” value (H226 LSCC cells; oral, iDNMT alone, 5 mg/kg) was “most significant inhibition” and the “subcutaneous growth of H226 cells” value (H226 LSCC cells; oral, iDNMT alone, 10 mg/kg) was “most significant inhibition”. For the same compound, the IC50 (DNMT-1) was 4.71 µM, the “methylation of the miR-27-3p promoter region” value (Notch pathway; Figure 5A) was “decreased methylation of the miR-27-3p promoter region” and the “expression of PSEN-1 or downstream factors of the Notch pathway” value (Notch pathway; N-cadherin, vimentin, survivin, cIAP-1, cIAP-2, Figure 5A) was “inhibit the expression of PSEN-1 or downstream factors of the Notch pathway”. For the same compound, the DNMT-1 expression (H226 cells; Figure 5B) was “no effects on DNMT-1 expression”, the PSEN-1 expression (H226 cells; Figure 5B) was “inhibited PSEN-1 expression” and the “accumulation of NICD in the nuclear subfraction” value (H226 cells; iDNMT low 0.1, medium 1, high 10 μmol/L, dose-dependent) was “reduced accumulation of NICD in the nuclear subfraction”.

In the case of `COc1cc(C(=O)Nc2ccc(C(=O)N3CCN(C(C)C)CC3)cc2)ccc1C` [Compound 02], the “In vitro activity (IC50) compared to ZINC15602870” value (DNMT-1) is reported as “improved IC50 values” and the IC50 (DNMT-1) is reported as 15 µM.
